# According to US20030017186A1, “Carboxylic acid fluorides as pesticides” (priority 1999, published 2003):
# Key:
# [1] = tested on: House longhorn beetle (Hylotrupes bajulus); experiment: Fumigation test in glass vessel, house longhorn beetles; assay type: in vivo; conditions: HYLOBA beetles
# Text: (§1) b1) House longhorn beetle (Hylotrupes bajulus)=HYLOBA
# (§2) The test organisms, separated by species, were placed into a glass vessel measuring 30 cm×30 cm×60 cm, which was sealed with a glass lid so as to be airtight. The adults and the larvae of the mealworm beetle (Tenebrio molitor) and the broad-horned flour beetle (Gnathocerus cornutus) were placed into small glass vessels approximately 5 cm in diameter, which were closed with a gauze lid and in which they could freely move about. The larvae of the rice weevil had burrowed into seeds of grain. The wood pest larvae were inserted into small blocks of wood measuring 5 cm×2.5 cm×2 cm. The openings were sealed with wads of cotton wool. Only one each of the larvae of the house longhorn beetle (Hylotrupes bajulus) was inserted into a piece of wood, while 6-8 larvae of the common furniture beetle (Anobium punctatum) were inserted into each piece of wood.
# (§3) The respective gas was then introduced into the fumigation vessel through a gas line from a gas tank that contained the specified amount of gas. After a defined time period, the fumigation vessel was purged with compressed air. The discharged gas was purified by an attached gas scrubber.
# (§4) The beetles were observed until they died. This point was recorded for each species. The larvae of the wood pests as well as the larvae of the rice weevil (Sitophilus oryzae) had to be picked out of the wood or the grain to check their condition. If any of the animals were still alive, the wooden test blocks remaining in the vessel were fumigated again and were reexamined after the corresponding time span had elapsed. The same number of animals in the untreated control was also checked at each point.
# (§5) The vitality of the animals was checked at certain time intervals. The beetles could be observed through the fumigation vessel. This was also true for the larvae of the mealworm beetle and the broad-horned flour beetle. The wooden test blocks of the wood pest larvae were opened with hammer and chisel. Tweezers were used to pull the rice weevil larvae out of the grain seeds. The exact time intervals and the number of the evaluated pests were documented in the test results.
# [2] = tested on: House longhorn beetle (Hylotrupes bajulus) larvae; experiment: Fumigation test in glass vessel, house longhorn beetle larvae in wood blocks; assay type: in vivo; conditions: HYLOBA larvae in wood blocks
# Text: as §1, §2, §3, §4, §5
# [3] = tested on: Common furniture beetle (Anobium punctatum); experiment: Fumigation test in glass vessel, common furniture beetles; assay type: in vivo; conditions: ANOBPU beetles
# Text: (§6) b2) Common furniture beetle (Anobium punctatum)=[…]
# as §2, §3, §4, §5
# [4] = tested on: Common furniture beetle (Anobium punctatum) larvae; experiment: Fumigation test in glass vessel, common furniture beetle larvae in wood blocks; assay type: in vivo; conditions: ANOBPU larvae in wood blocks
# Text: as §6, §2, §3, §4, §5
# [5] = tested on: Mealworm beetle (Tenebrio molitor); experiment: Fumigation test in glass vessel, mealworm beetles; assay type: in vivo; conditions: TENEMO beetles; Example 3; gas 45.8 g/m^3, 17.2° C. (1st fumigation), 45.4 g/m^3, 17.7° C. (2nd); 54% rel. air humidity
# Text: (§7) a1) Mealworm beetle (Tenebrio molitor)=TENEMO
# as §2, §3, §4, §5
# [6] = tested on: Mealworm beetle (Tenebrio molitor) larvae; experiment: Fumigation test in glass vessel, mealworm beetle larvae; assay type: in vivo; conditions: TENEMO larvae; Example 3; gas 45.8 g/m^3, 17.2° C. (1st fumigation), 45.4 g/m^3, 17.7° C. (2nd); 54% rel. air humidity
# Text: as §7, §2, §3, §4, §5
# [7] = tested on: Rice weevil (Sitophilus oryzae); experiment: Fumigation test in glass vessel, rice weevils; assay type: in vivo; conditions: SITTOR beetles; Example 3; gas 45.8 g/m^3, 17.2° C. (1st fumigation), 45.4 g/m^3, 17.7° C. (2nd); 54% rel. air humidity
# Text: (§8) a2) Rice weevil (Sitophilus oryzae)=SITTOR
# as §2, §3, §4, §5
# [8] = tested on: Rice weevil (Sitophilus oryzae) larvae; experiment: Fumigation test in glass vessel, rice weevil larvae in grain seeds; assay type: in vivo; conditions: SITTOR larvae in grain seeds; Example 3; gas 45.8 g/m^3, 17.2° C. (1st fumigation), 45.4 g/m^3, 17.7° C. (2nd); 54% rel. air humidity
# Text: as §8, §2, §3, §4, §5
# [9] = tested on: Broad-horned flour beetle (Gnathocerus cornutus); experiment: Fumigation test in glass vessel, broad-horned flour beetles; assay type: in vivo; conditions: GNATCO beetles; Example 3; gas 45.8 g/m^3, 17.2° C. (1st fumigation), 45.4 g/m^3, 17.7° C. (2nd); 54% rel. air humidity
# Text: (§9) a3) Broad-horned flour beetle (Gnathocerus cornutus)=GNATCO
# as §2, §3, §4, §5
# [10] = tested on: Broad-horned flour beetle (Gnathocerus cornutus) larvae; experiment: Fumigation test in glass vessel, broad-horned flour beetle larvae; assay type: in vivo; conditions: GNATCO larvae; Example 3; gas 45.8 g/m^3, 17.2° C. (1st fumigation), 45.4 g/m^3, 17.7° C. (2nd); 54% rel. air humidity
# Text: as §9, §2, §3, §4, §5
# [11] = tested on: Saw-toothed grain beetle (Oryzaephilus surinamensis); experiment: Fumigation test in glass vessel, saw-toothed grain beetles; assay type: in vivo; conditions: ORYZSA beetles; Example 3; gas 45.8 g/m^3, 17.2° C. (1st fumigation), 45.4 g/m^3, 17.7° C. (2nd); 54% rel. air humidity
# Text: a4) Saw-toothed grain beetle (Oryzaephilus surinamensis)=ORYZSA
# as §2, §3, §4, §5
# [12] = tested on: wood pests (house longhorn beetle, common furniture beetle); experiment: Fumigation test, wood pests; assay type: in vivo, Hylotrupes bajulus, Anobium punctatum
# Text: as §2, §3, §4, §5
# [13] = tested on: wood and storage pests; experiment: Fumigation test, wood and storage pests (overall statements); assay type: in vivo; conditions: Conclusion of Examples 1-5
# Text: as §2, §3, §4, §5
# [14] = Example 1, gas 54.8 g/m^3, 16° C. (1st fumigation), 58.0 g/m^3, 13° C. (2nd), 66% rel. air humidity
# [15] = Example 2, ventilator operation in vessel, gas 57.6 g/m^3, 20.6° C. (1st fumigation), 48.0 g/m^3, 21.5° C. (2nd)
structure (smiles),measurement,setting,value
"O=C(F)C(F)(F)F [Trifluoroacetyl Fluoride, Trifluoroacetyl fluoride]","Number alive, 1 hr. after Start of Fumigation",[1]; [14],2
same,"Number alive, 3 hrs. after Start of Fumigation",[1]; [14],0
same,"Number dead, 1 hr. after Start of Fumigation",[1]; [14],4
same,"Number dead, 3 hrs. after Start of Fumigation",[1]; [14],6
same,"Number alive, 1 hr. after Start of Fumigation",[1]; [15],1
same,"Number alive, 12 hrs. after Start of Fumigation",[1]; [15],0
same,"Number dead, 1 hr. after Start of Fumigation",[1]; [15],5
same,"Number dead, 12 hrs. after Start of Fumigation",[1]; [15],6
same,"Number alive, 24 hrs. after Start of Fumigation",[2]; [14],6
same,"Number alive, 48 hrs. after Start of Fumigation",[2]; [14],3
same,"Number dead, 24 hrs. after Start of Fumigation",[2]; [14],0
same,"Number dead, 48 hrs. after Start of Fumigation",[2]; [14],3
same,"Number alive, 12 hrs. after Start of Fumigation",[2]; [15],7
same,"Number alive, 24 hrs. after Start of Fumigation",[2]; [15],7
same,"Number alive, 48 hrs. after Start of Fumigation",[2]; [15],6
same,"Number dead, 12 hrs. after Start of Fumigation",[2]; [15],0
same,"Number dead, 24 hrs. after Start of Fumigation",[2]; [15],0
same,"Number dead, 48 hrs. after Start of Fumigation",[2]; [15],1
same,"Number alive, 1 hr. after Start of Fumigation",[3]; [14],0
same,"Number dead, 1 hr. after Start of Fumigation",[3]; [14],6
same,"Number alive, 1 hr. after Start of Fumigation",[3]; [15],0
same,"Number dead, 1 hr. after Start of Fumigation",[3]; [15],6
same,"Number alive, 24 hrs. after Start of Fumigation",[4]; [14],10
same,"Number alive, 48 hrs. after Start of Fumigation",[4]; [14],6
same,"Number dead, 24 hrs. after Start of Fumigation",[4]; [14],0
same,"Number dead, 48 hrs. after Start of Fumigation",[4]; [14],4
same,"Number alive, 12 hrs. after Start of Fumigation",[4]; [15],11
same,"Number alive, 24 hrs. after Start of Fumigation",[4]; [15],10
same,"Number alive, 48 hrs. after Start of Fumigation",[4]; [15],0
same,"Number dead, 12 hrs. after Start of Fumigation",[4]; [15],1
same,"Number dead, 24 hrs. after Start of Fumigation",[4]; [15],2
same,"Number dead, 48 hrs. after Start of Fumigation",[4]; [15],12
same,"Number alive, 1 hr. after Start of Fumigation",[5],0
same,"Number dead, 1 hr. after Start of Fumigation",[5],15
same,"Number alive, 1 hr. after Start of Fumigation",[6],0
same,"Number dead, 1 hr. after Start of Fumigation",[6],15
same,"Number alive, 1 hr. after Start of Fumigation",[7],0
same,"Number dead, 1 hr. after Start of Fumigation",[7],20
same,"Number alive, 1 hr. after Start of Fumigation",[8],5
same,"Number alive, 3 hrs. after Start of Fumigation",[8],0
same,"Number dead, 1 hr. after Start of Fumigation",[8],15
same,"Number dead, 3 hrs. after Start of Fumigation",[8],20
same,"Number alive, 1 hr. after Start of Fumigation",[9],0
same,"Number dead, 1 hr. after Start of Fumigation",[9],15
same,"Number alive, 1 hr. after Start of Fumigation",[10],0
same,"Number dead, 1 hr. after Start of Fumigation",[10],15
same,"Number alive, 1 hr. after Start of Fumigation",[11],0
same,"Number dead, 1 hr. after Start of Fumigation",[11],15
same,Time after which the animals became very active,"[12]; Example 1, exposed beetles and larvae, gas 54.8 g/m^3, 16° C.",1 to 2 min
same,"Time after which all the beetles lay on their backs, only legs and feelers moving slightly","[12]; Example 1, exposed beetles, gas 54.8 g/m^3, 16° C.",about 10 minutes
same,Penetration of the wood to kill the larvae completely,"[12]; Example 1, larvae in wooden test blocks, within a time span of 48 hours",does not penetrate the wood sufficiently
same,Time after which larvae without wooden test blocks were dead,"[12]; Example 1, larvae without wooden test blocks, gas 54.8 g/m^3, 16° C.",approximately 1 hour
same,Effectiveness with respect to the larvae with ventilators,"[12]; Example 2, air circulation through ventilators, compared with Example 1",no improvement in the effectiveness
same,Effectiveness against exposed beetles and larvae,[13],very effective
